In article PMC6522510 (Nature Communications, 2019):
Where two headings read alike, the source gives them in different places.

Assays:
Set-up in all cases: species or system AML cell lines (8); Primary HTS, single concentration about 10 uM, Cell Titer Glo viability; log10 luminescence, per cent inhibition relative to cycloheximide control
Conditions in all cases: 72 h, relative to cycloheximide control, log10 luminescence, inhibitor
U937 = tested on: U937
CMS = tested on: CMS
MV4-11 = tested on: MV4-11
CHRF288-11 = tested on: CHRF288-11
CMK = tested on: CMK
M07e = tested on: M07e
ML-2 = tested on: ML-2
MOLM-13 = tested on: MOLM-13

| SMILES | U937 %inh (U937) [%] | CMS %inh (CMS) [%] | MV4-11 %inh (MV4-11) [%] | CHRF288-11 %inh (CHRF288-11) [%] | CMK %inh (CMK) [%] | M07e %inh (M07e) [%] | ML-2 %inh (ML-2) [%] | MOLM-13 %inh (MOLM-13) [%] | U937 %inh (U937; U937 %inh, 10 µM) [%] | CMS %inh (CMS; CMS %inh, 10 µM) [%] | MV4-11 %inh (MV4-11; MV4-11 %inh, 10 µM) [%] | CHRF288-11 %inh (CHRF288-11; CHRF288-11 %inh, 10 µM) [%] | CMK %inh (CMK; CMK %inh, 10 µM) [%] | M07e %inh (M07e; M07e %inh, 10 µM) [%] | ML-2 %inh (ML-2; ML-2 %inh, 10 µM) [%] | MOLM-13 %inh (MOLM-13; MOLM-13 %inh, 10 µM) [%] |
| --- | --- | --- | --- | --- | --- | --- | --- | --- | --- | --- | --- | --- | --- | --- | --- | --- |
| O=C1[C@H](CC[C@H](O)c2ccc(F)cc2)[C@@H](c2ccc(O)cc2)N1c1ccc(F)cc1 [SJ000286078-3, EZETIMIBE] | 5.441 | 1.706 | 0.198 | 8.692 | 3.95 | 4.29 | 2.139 | 5.807 |  |  |  |  |  |  |  |  |
| C=CC1=C(C(=O)O)N2C(=O)[C@@H](NC(=O)/C(=N\O)c3csc(N)n3)[C@H]2SC1 [SJ000286082-3] | 3.234 | 3.32 | 0.05121 | 4.774 | 1.925 | 3.525 | 2.212 | 11.38 |  |  |  |  |  |  |  |  |
| CCCCC(=O)N(Cc1ccc(-c2ccccc2-c2nnn[nH]2)cc1)[C@H](C(=O)O)C(C)C [SJ000286083-3] |  |  |  |  |  |  |  |  | 1.517 | 1.896 | -0.8771 | 2.31 | -2.006 | -3.413 | 1.672 | -0.1457 |
| CCCCC(=O)N(Cc1ccc(-c2ccccc2-c2nnn[nH]2)cc1)[C@H](C(=O)O)C(C)C [SJ000286083-4] |  |  |  |  |  |  |  |  | -0.1303 | -1.191 | -5.399 | 3.369 | -2.819 | -1.607 | -0.2697 | -2.877 |
| Cc1cccc(Nc2ccncc2S(=O)(=O)NC(=O)NC(C)C)c1 [SJ000286085-4, TORSEMIDE] |  |  |  |  |  |  |  |  | 0.4443 | -0.4672 | 3.27 | 121.5 | 4.671 | 11.12 | -0.2644 | 0.9883 |
| Cc1cccc(Nc2ccncc2S(=O)(=O)NC(=O)NC(C)C)c1 [SJ000286085-5, TORSEMIDE] |  |  |  |  |  |  |  |  | -1.512 | -2.109 | 0.9899 | 0.4254 | -7.265 | 1.697 | 1.771 | -1.664 |
| C[C@]12CCC(=O)C=C1C=C[C@@H]1[C@@H]2CC[C@@]2(C)[C@H]1CC[C@@]21CCC(=O)O1 [SJ000286091-3, CANRENONE] | 3.254 | 0.603 | 4.82 | 2.724 | 0.4745 | 2.621 | 3.227 | 5.53 |  |  |  |  |  |  |  |  |
| CCOC(=O)[C@H](CCc1ccccc1)N[C@@H](C)C(=O)N1[C@H](C(=O)O)C[C@H]2CCCC[C@@H]21 [SJ000286095-3, TRANDOLAPRIL] | 1.075 | -0.04443 | 3.149 | 2.18 | -2.955 | 4.953 | -0.1668 | 4.361 |  |  |  |  |  |  |  |  |
| CN1CCN(C2=Nc3ccccc3Oc3ccc(Cl)cc32)CC1 [SJ000286106-7, LOXAPINE SUCCINATE] | 3.14 | 1.134 | 2.165 | 14.63 | -0.3035 | 4.618 | 1.422 | 7.459 |  |  |  |  |  |  |  |  |
| NS(=O)(=O)c1cc2c(cc1Cl)NC(C(Cl)Cl)NS2(=O)=O (stereo not shown) [SJ000286143-4, TRICHLORMETHIAZIDE] | -14.58 | 0.3933 | -3.026 | 5.642 | 3.577 | -1.321 | -0.7669 | -1.049 |  |  |  |  |  |  |  |  |
| CCCc1cc(=O)[nH]c(=S)[nH]1 [SJ000286145-4, PROPYLTHIOURACIL] | -0.4734 | -1.815 | 0.3408 | 1.792 | -4.099 | 2.631 | 1.023 | -0.9508 |  |  |  |  |  |  |  |  |
